Measured values: patent publication US20060030616A1, “Anhydride modified cantharidin analogues useful in the treatment of cancer” (priority 1998, published 2006)

Columns and labels:
WiDr cells = experiment: MTT cytotoxicity assay, 72 h; type: cell-based, human; conditions: p53 mt, read-out: IC50 (mean ± SE) after 72 h continuous exposure
Description: (§1) Cells in a subconfluent phase are transferred to 96-well microtitre plates. L1210 cells are plated at a density of 1000 cells/well in 100 μl medium, while all other cell lines are plated at a density of 2000-25000 cells/well. The cells are left for 24 h prior to treatment to ensure exponential growth has been achieved, 24 h after plating (day 0), 100 μl of phosphatase inhibitor is added to each well, control wells received 100 μl of medium only. Drug exposure time is 72 h (day 3). The effect of phosphatase inhibition is tested in triplicate over a concentration range of […]−1×10^−8 M. Growth inhibitory effects are evaluated using the MTT assay and absorbance read at […]. The IC50 is the drug concentration at which cell growth is 50% inhibited based on the difference of optical density on day 0 and day 3 of drug exposure. Cytotoxicity is evaluated using a spectrophotometric assay which determines the percentage of cell growth following exposure of the cells to various concentrations of the phosphatase inhibitors for a period of 72 hours. The subsequent dose response curve is used to calculate IC50 values (the drug concentration at which cell growth is 50% inhibited).
(§2) Anti-cancer screening of the protein phosphatase inhibitors is assessed using the MTT assay. This assay determines cell viability by the ability of mitochondrial dehydrogenase to produce formazan crystals from 3-(4,5-dimethylthiazol-2-yl)-2,5-diphenyltetrazolium bromide. The viable cell number/well is directly proportional to the production of formazan, which following solubilization, can be measured spectrophotometrically (540 nm). This technique is also used by the National Cancer Institute to screen for new anticancer agents.
(§3) As described herein a number of cantharidin analogues have been synthesised and tested for their anticancer activity in nine cancer cell lines using the MTT assay after 72 h exposure. These new analogues are shown in FIG. 2 and have been designated MK-1 through to MK-9.

nine cancer cell lines = experiment: MTT cytotoxicity assay, 72 h, ranges over cell line panel; type: cell-based; conditions: nine cell lines, read-out: IC50 range across all cell lines tested
Description: as §1, §2, §3

L1210 cells = experiment: Checkpoint abrogation after 6 Gy radiation, flow cytometry; type: cell-based, murine; conditions: 12 h after drug
Description: (§4) The cells are fixed in 70% ethanol and stored at −20° C. until analysis is performed (1-2 weeks). After fixing, the cells are pelleted and incubated in PBS containing propidium iodide ([…]) and RNase A (200 mg/ml) for at least 30 min at room temperature. The samples (2×10^4 events) are analysed using a Becton Dickson FACScan, fluorescence is collected in fluorescence detector 2 (FL2), filter 575/30 nm band pass. Cell cycle distribution is assessed using Cell Quest software (Becton Dickson).
(§5) The ability of the protein phosphatase inhibitors to abrogate the G1 or G2 checkpoint of the cell cycle may be determined by cell cycle analysis using flow cytometry. Briefly, asynchronous cell cultures are harvested 18 h after 6 Gy irradiation and/or 12 h incubation with the protein phosphatase inhibitor. Depending upon the p53 status of the cell line, radiation treatment alone will induce arrest in either G1 and/or G2 phase of the cell cycle.
(§6) If the protein phosphatase inhibitor abrogates the G2 checkpoint then the cells will not arrest in the G2 phase of the cell cycle and the cells will continue through the cell cycle and accumulate in the G1 phase of the cell cycle only. Similarily if the protein phosphatase inhibitors abrogates the G1 checkpoint then the cells will not arrest in the G1 phase of the cell cycle and accumulate in the G2 phase of the cell cycle only. Cell cycle analysis using propidium iodide labelling of DNA has been used extensively in our laboratory to assess the effect of specific anticancer agents that induce S-phase cell cycle arrest and apoptotic cell death (Sakoff, Ackland and Stewart, 1998). Experiments were performed on a Becton Dickinson FACScan and using Cell Quest software.
(§7) The cells were treated with 6 Gy of radiation and then treated with cantharidin 6 h later. The ability to abrogate cell cycle arrest was assessed is 12 h after the addition of the drugs.

HT29 cells = experiment: as above; type: cell-based, human; conditions: 12 h after drug
Description: as §4, §5, §6, §7

HL60 cells = experiment: as above; type: cell-based, human; conditions: 12 h after drug
Description: as §4, §5, §6, §7

HCT116 cells = experiment: as above; type: cell-based, human; conditions: 12 h after drug
Description: as §4, §5, §6, §7

O=C1OC(=O)C2C3C=CC(O3)C12 (stereo not shown) [MK-2]
IC50 (WiDr cells): 198 ± 53 µM | IC50 (nine cancer cell lines): 157 to 248 µM | Cell Cycle Distribution, G1 (L1210 cells; L1210, 50 μM, 18 h after 6Gy): 19.0 percentage of total | Cell Cycle Distribution, G2 + M (L1210 cells; L1210, 50 μM, 18 h after 6Gy): 50.1 percentage of total | Cell Cycle Distribution, S (L1210 cells; L1210, 50 μM, 18 h after 6Gy): 27.8 percentage of total | Cell Cycle Distribution, sub G1 (L1210 cells; L1210, 50 μM, 18 h after 6Gy): 4.0 percentage of total | Cell Cycle Distribution, G1 (L1210 cells; L1210, 100 μM, 18 h after 6Gy): 18.4 percentage of total | Cell Cycle Distribution, G2 + M (L1210 cells; L1210, 100 μM, 18 h after 6Gy): 55.8 percentage of total | Cell Cycle Distribution, S (L1210 cells; L1210, 100 μM, 18 h after 6Gy): 23.0 percentage of total | Cell Cycle Distribution, sub G1 (L1210 cells; L1210, 100 μM, 18 h after 6Gy): 3.5 percentage of total | Cell Cycle Distribution, G1 (L1210 cells; L1210, 250 μM, 18 h after 6Gy): 11.2 percentage of total | Cell Cycle Distribution, G2 + M (L1210 cells; L1210, 250 μM, 18 h after 6Gy): 71.9 percentage of total | Cell Cycle Distribution, S (L1210 cells; L1210, 250 μM, 18 h after 6Gy): 10.0 percentage of total | Cell Cycle Distribution, sub G1 (L1210 cells; L1210, 250 μM, 18 h after 6Gy): 6.9 percentage of total | Cell Cycle Distribution, G1 (L1210 cells; L1210, 500 μM, 18 h after 6Gy): 3.4 percentage of total | Cell Cycle Distribution, G2 + M (L1210 cells; L1210, 500 μM, 18 h after 6Gy): 88.4 percentage of total | Cell Cycle Distribution, S (L1210 cells; L1210, 500 μM, 18 h after 6Gy): 2.9 percentage of total | Cell Cycle Distribution, sub G1 (L1210 cells; L1210, 500 μM, 18 h after 6Gy): 5.4 percentage of total | Checkpoint remark (L1210 cells; L1210, 500 μM, 18 h after 6Gy): G1 abrogation | Checkpoint abrogation (L1210 cells; L1210, 6 Gy): abrogated radiation induced G1 arrest | Cell Cycle Distribution, G1 (HT29 cells; HT29, 5 μM, 18 h after 6Gy): 31.8 percentage of total | Cell Cycle Distribution, G2 + M (HT29 cells; HT29, 5 μM, 18 h after 6Gy): 41.3 percentage of total | Cell Cycle Distribution, S (HT29 cells; HT29, 5 μM, 18 h after 6Gy): 8.7 percentage of total | Cell Cycle Distribution, sub G (HT29 cells; HT29, 5 μM, 18 h after 6Gy): 17.3 percentage of total | Cell Cycle Distribution, G1 (HT29 cells; HT29, 50 μM, 18 h after 6Gy): 35.4 percentage of total | Cell Cycle Distribution, G2 + M (HT29 cells; HT29, 50 μM, 18 h after 6Gy): 44.7 percentage of total | Cell Cycle Distribution, S (HT29 cells; HT29, 50 μM, 18 h after 6Gy): 8.8 percentage of total | Cell Cycle Distribution, sub G (HT29 cells; HT29, 50 μM, 18 h after 6Gy): 10.3 percentage of total | Cell Cycle Distribution, G1 (HT29 cells; HT29, 100 μM, 18 h after 6Gy): 40.6 percentage of total | Cell Cycle Distribution, G2 + M (HT29 cells; HT29, 100 μM, 18 h after 6Gy): 45.9 percentage of total | Cell Cycle Distribution, S (HT29 cells; HT29, 100 μM, 18 h after 6Gy): 9.0 percentage of total | Cell Cycle Distribution, sub G (HT29 cells; HT29, 100 μM, 18 h after 6Gy): 3.5 percentage of total | Cell Cycle Distribution, G1 (HT29 cells; HT29, 250 μM, 18 h after 6Gy): 24.9 percentage of total | Cell Cycle Distribution, G2 + M (HT29 cells; HT29, 250 μM, 18 h after 6Gy): 59.4 percentage of total | Cell Cycle Distribution, S (HT29 cells; HT29, 250 μM, 18 h after 6Gy): 12.3 percentage of total | Cell Cycle Distribution, sub G (HT29 cells; HT29, 250 μM, 18 h after 6Gy): 2.7 percentage of total | Cell Cycle Distribution, G1 (HT29 cells; HT29, 500 μM, 18 h after 6Gy): 24.1 percentage of total | Cell Cycle Distribution, G2 + M (HT29 cells; HT29, 500 μM, 18 h after 6Gy): 45.2 percentage of total | Cell Cycle Distribution, S (HT29 cells; HT29, 500 μM, 18 h after 6Gy): 20.4 percentage of total | Cell Cycle Distribution, sub G (HT29 cells; HT29, 500 μM, 18 h after 6Gy): 8.8 percentage of total | Checkpoint remark (HT29 cells; HT29, 500 μM, 18 h after 6Gy): G1 abrogation | Checkpoint abrogation (HT29 cells; HT29, 6 Gy): abrogated radiation induced G1 arrest | Cell Cycle Distribution, G1 (HL60 cells; HL60, 50 μM, 18 h after 6Gy): 6.1 percentage of total | Cell Cycle Distribution, G2 + M (HL60 cells; HL60, 50 μM, 18 h after 6Gy): 85.5 percentage of total | Cell Cycle Distribution, S (HL60 cells; HL60, 50 μM, 18 h after 6Gy): 2.8 percentage of total | Cell Cycle Distribution, sub G (HL60 cells; HL60, 50 μM, 18 h after 6Gy): 5.9 percentage of total | Cell Cycle Distribution, G1 (HL60 cells; HL60, 100 μM, 18 h after 6Gy): 6.1 percentage of total | Cell Cycle Distribution, G2 + M (HL60 cells; HL60, 100 μM, 18 h after 6Gy): 85.4 percentage of total | Cell Cycle Distribution, S (HL60 cells; HL60, 100 μM, 18 h after 6Gy): 3.3 percentage of total | Cell Cycle Distribution, sub G (HL60 cells; HL60, 100 μM, 18 h after 6Gy): 5.5 percentage of total | Cell Cycle Distribution, G1 (HL60 cells; HL60, 250 μM, 18 h after 6Gy): 5.4 percentage of total | Cell Cycle Distribution, G2 + M (HL60 cells; HL60, 250 μM, 18 h after 6Gy): 83.9 percentage of total | Cell Cycle Distribution, S (HL60 cells; HL60, 250 μM, 18 h after 6Gy): 2.8 percentage of total | Cell Cycle Distribution, sub G (HL60 cells; HL60, 250 μM, 18 h after 6Gy): 8.1 percentage of total | Cell Cycle Distribution, G1 (HL60 cells; HL60, 500 μM, 18 h after 6Gy): 4.4 percentage of total | Cell Cycle Distribution, G2 + M (HL60 cells; HL60, 500 μM, 18 h after 6Gy): 80.0 percentage of total | Cell Cycle Distribution, S (HL60 cells; HL60, 500 μM, 18 h after 6Gy): 4.1 percentage of total | Cell Cycle Distribution, sub G (HL60 cells; HL60, 500 μM, 18 h after 6Gy): 11.8 percentage of total | Checkpoint remark (HL60 cells; HL60, 500 μM, 18 h after 6Gy): Cell Death | Checkpoint abrogation (HL60 cells; HL60, 6 Gy): abrogated radiation induced G1 arrest | Cell Cycle Distribution, G1 (HCT116 cells; HCT116, 5 μM, 18 h after 6Gy): 30.8 percentage of total | Cell Cycle Distribution, G2 + M (HCT116 cells; HCT116, 5 μM, 18 h after 6Gy): 57.2 percentage of total | Cell Cycle Distribution, S (HCT116 cells; HCT116, 5 μM, 18 h after 6Gy): 7.9 percentage of total | Cell Cycle Distribution, sub G (HCT116 cells; HCT116, 5 μM, 18 h after 6Gy): 3.7 percentage of total | Cell Cycle Distribution, G1 (HCT116 cells; HCT116, 50 μM, 18 h after 6Gy): 32.8 percentage of total | Cell Cycle Distribution, G2 + M (HCT116 cells; HCT116, 50 μM, 18 h after 6Gy): 57.3 percentage of total | Cell Cycle Distribution, S (HCT116 cells; HCT116, 50 μM, 18 h after 6Gy): 6.3 percentage of total | Cell Cycle Distribution, sub G (HCT116 cells; HCT116, 50 μM, 18 h after 6Gy): 3.3 percentage of total | Cell Cycle Distribution, G1 (HCT116 cells; HCT116, 100 μM, 18 h after 6Gy): 29.9 percentage of total | Cell Cycle Distribution, G2 + M (HCT116 cells; HCT116, 100 μM, 18 h after 6Gy): 59.6 percentage of total | Cell Cycle Distribution, S (HCT116 cells; HCT116, 100 μM, 18 h after 6Gy): 7.2 percentage of total | Cell Cycle Distribution, sub G (HCT116 cells; HCT116, 100 μM, 18 h after 6Gy): 3.1 percentage of total | Cell Cycle Distribution, G1 (HCT116 cells; HCT116, 250 μM, 18 h after 6Gy): 23.9 percentage of total | Cell Cycle Distribution, G2 + M (HCT116 cells; HCT116, 250 μM, 18 h after 6Gy): 65.4 percentage of total | Cell Cycle Distribution, S (HCT116 cells; HCT116, 250 μM, 18 h after 6Gy): 4.3 percentage of total | Cell Cycle Distribution, sub G (HCT116 cells; HCT116, 250 μM, 18 h after 6Gy): 6.2 percentage of total | Cell Cycle Distribution, G1 (HCT116 cells; HCT116, 500 μM, 18 h after 6Gy): 15.4 percentage of total | Cell Cycle Distribution, G2 + M (HCT116 cells; HCT116, 500 μM, 18 h after 6Gy): 73.0 percentage of total | Cell Cycle Distribution, S (HCT116 cells; HCT116, 500 μM, 18 h after 6Gy): 4.9 percentage of total | Cell Cycle Distribution, sub G (HCT116 cells; HCT116, 500 μM, 18 h after 6Gy): 6.4 percentage of total | Checkpoint remark (HCT116 cells; HCT116, 500 μM, 18 h after 6Gy): G1 abrogation | Checkpoint abrogation (HCT116 cells; HCT116, 6 Gy): abrogated radiation induced G1 arrest
